# Experimental data reported in patent US10758536B2, “Method for treating shingles with N-methanocarbathymidine (N-MCT)” (priority 2015, dated 2020).
# “Also recorded” adds a separate entry of the source.
# Assays:
# VZV [1] = assay: Delayed N-MCT treatment in SCID-Hu mice; format: in vivo, varicella-zoster virus; details: 50 mg/kg p.o. BID; treatment delayed 3 or 7 days after VZV infection
# Description: Statistical analysis: Data were analyzed using Student's t test or one-way ANOVA and Dunnett's Multiple Comparison post hoc tests. Calculations were made using GraphPad Prism 5.02 for Windows (GraphPad Software, San Diego, Calif., www.graphpad.com). A p<0.05 was considered statistically significant.
# VZV [2] = assay: SCID-Hu mouse model of VZV replication, oral dose range; format: in vivo, varicella-zoster virus
# Description: SCID-hu mice with human skin xenografts were infected intradermally with VZV and treated orally twice daily with vehicle, PFA (positive control), or N-MCT at 5, 10, 20, 25, 50, or 100 mg/kg/day. Virus spread was measured daily by in vivo bioluminescence imaging (IVIS). […] The results were analyzed for statistical significance by ANOVA and Dunnett's post hoc test of multiple comparisons (GraphPad Prism).
# VZV [3] = assay: Skin organ culture Assays 4 and 5: topical ointment vehicles; format: cell-based, varicella-zoster virus
# Description: Another objective of the invention was to test N-MCT at 0.5% in a variety of topical formulations in the SOC assay. The purpose was to determine the optimal topical formulation for N-MCT in full-thickness human skin. Human fetal skin was purchased from ABR and delivered by overnight courier on wet ice. The tissue was cleaned, disinfected in betadine and 70% ethanol, then cut into pieces approximately 1-cm^2. Each piece was inoculated with VZV-BAC-Luc strain that expresses firefly luciferase. Approximately 3 hours after inoculation, the pieces of skin were placed in NetWells above tissue culture medium and incubated overnight. The next day (Day 1) each piece of skin was soaked in D-luciferin for 45 min, and then scanned in the IVIS-50 instrument to measure Total Flux, which is a correlate of VZV pfu. The negative control group was not treated with drug or vehicle. The positive control drug treatment began on Day 1 by placing the skin, in NetWells, over medium containing 0.1 μg/mL N-MCT (see Table 5 below). The ointments were formulated with N-MCT by adding dry powder to the vehicle on a glass slab, then mixing thoroughly with a metal spatula. The ointments were warmed to 37° C. before spreading on the skin pieces with a Dacron swab. […] The virus yield in each piece of skin was calculated by dividing the Total Flux measured on Day 5 by Day […]
# VZV [4] = assay: Skin organ culture topical Assay 3: vehicle comparison; format: cell-based, varicella-zoster virus
# Description: Place 36 mL deionized sterile water into small beaker with stir bar. Slowly waft 900 mg of carbopol (980 NF, Lot # CCONLCC013, Lubrizol Corp) into water, avoiding clumps. Add equal volume N-MCT in 20% hydroxypropyl-β-cyclodextrin (Sigma) at 2× to reach the desired concentration. Add 2 drops NaOH (18% solution) to attain a pH near 5.0. Store at 4° C. The 0.5% cidofovir gel was made in a similar manner except that cidofovir was dissolved in water. The DMSO vehicle was prepared by adding a 2% DMSO solution in water to the carbopol suspension at a 1:1 ratio. Hydroxypropyl-β-cyclodextrin (HPBCD) was prepared by mixing 5.0 g with 20 mL sterile water. Stock solution of N-MCT was prepared by dissolving 90 mg N-MCT in 9 mL 20% HPBCD and sonicating for 1 min.
# This assay compared two vehicles, 1% DMSO and 10% hydroxypropyl-β-cyclodextrin (HPBCD) in carbopol gel, and 0.5% N-MCT in either vehicle. Refer to Assay #3 in Table 4 above. Each group was treated on Days 1-4 and scanned on Day 5, which is the typical assay protocol. The skin specimens were then cultured without drug or vehicle for another 6 days (scans on Day 7 and Day 11) to observe virus rebound. VZV yield was reduced in both Vehicle groups during the treatment phase, and then rebounded. This was likely due to the effects of the slightly acidic carbopol gel. There was little difference between the two vehicles. […] Importantly, there was no rebound in the groups treated with N-MCT. In fact, VZV yield continued to decrease after the treatment stopped.
structure (smiles),measurement,setting,value
"Cc1cn([C@]23C[C@H](O)[C@@H](CO)[C@@H]2C3)c(=O)[nH]c1=O [N-MCT, N-methanocarbathymidine]",effectiveness in vivo when treatment is delayed,VZV [1],effective; also recorded: can be delayed up to one week after infection
same,"VZV spread in mouse model, effectiveness",VZV [2]; 5-100 mg/kg/day p.o. BID,prevents VZV spread; also recorded: effective
same,VZV yield and growth rates compared to vehicle,"VZV [2]; all doses, N-MCT 5-100 mg/kg/day BID, p<0.0001, ANOVA and Dunnett",significantly reduced
same,"doses more effective than control antiviral compounds (PAA, PFA, cidofovir)",VZV [2]; mouse model of virus replication,> 10 mg/kg/day
same,optimal dose,"VZV [2]; p.o. BID, SCID-Hu mice",approximately 20 mg/kg/day
same,effectiveness as topical formulation in SOC model,"VZV [3]; 0.5% N-MCT in ointments, daily, scan Day 5",highly effective
same,"virus yield on Day 10 after treatment stopped, fold less","VZV [3]; no treatment after Day 5, groups treated with N-MCT",100 fold
same,VZV yield,"VZV [4]; 0.5% N-MCT in 1% DMSO or 10% HPBCD carbopol gel, Days 1-4",substantial decrease
same,cyclodextrin preparation compared with DMSO prep,VZV [4]; 0.5% N-MCT in 10% HPBCD vs 1% DMSO carbopol,slightly more effective
same,VZV rebound after treatment stopped,"VZV [4]; scans on Day 7 and Day 11, no drug after Day 5",no rebound
